The structures appear in SMILES notation.

T1 sequence (P30291 299-569 limits assumed): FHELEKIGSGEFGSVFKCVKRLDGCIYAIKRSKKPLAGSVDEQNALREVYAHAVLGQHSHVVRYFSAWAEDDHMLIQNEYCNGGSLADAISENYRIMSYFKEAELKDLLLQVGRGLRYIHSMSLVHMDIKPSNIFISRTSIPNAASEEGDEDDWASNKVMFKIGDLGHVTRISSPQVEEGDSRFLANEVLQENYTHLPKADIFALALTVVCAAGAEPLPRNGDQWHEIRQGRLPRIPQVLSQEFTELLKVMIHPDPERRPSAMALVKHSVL

The assay concerns the target T1, Wee1 kinase domain (Homo sapiens, UniProt P30291).
T1 construct: Wee1 kinase domain was purchased from Carna (catalog #05-177); purchased Carna 05-177
Briefly: Wee1 Kinase Biochemical Assay (ADP-Glo). The settings on record: Wee1 kinase domain, 15 uM ATP, ADP-Glo. How it is done:
Wee1 Kinase Biochemical Assay Protocol
Wee1 kinase domain was purchased from Carna (catalog #05-177). Wee1 kinase activity was determined with Poly(Lys,Tyr 4:1) hydrobromide as a substrate (Sigma-Aldrich) and by measuring ADP production using the ADP-Glo Kinase Assay kit (Promega) following the manufacturer's instructions. The kinase reaction was performed using the following conditions:
Buffer: 40 mM Tris-HCl, 20 mM magnesium chloride, supplemented with 0.1 mg/mL bovine serum albumin and 2 mM DTT. The final reaction mix contained 1 nM Wee1 enzyme, 15 uM ATP, and 2 ng/mL Poly(Lys,Tyr 4:1) hydrobromide substrate. The reaction time was 4 hours at 25° C.
The ADP-Glo signal was measured using the Envision plate reader and the percentage inhibition of kinase activity calculated for each inhibitor tested. Percent inhibition of Wee1 kinase activity was calculated based on the following formula.
[formula] • SSample: the signal of compounds • SHigh Ctrl: the signal of high control (DMSO) • SLow Ctrl: the signal of low control (positive control Wee1 inhibitor at saturating concentration)
On the technique in general: ADP-Glo first removes unused ATP, then detects ADP through luciferase.
Take `CN1CC[C@H](c2ccc(Nc3ncc4c(n3)N(c3cccc(N=S(C)(C)=O)n3)[C@H]3CC(C)(C)OC[C@@]43C)cc2)C1` (single isomer, unassigned) [Example 134]: the half-maximal inhibitory concentration (IC50) (usually the concentration at which inhibition is half-maximal) lay in the range of 100 to 1000 nM.

For the compound `CN1Cc2cc(Nc3ncc4c(n3)N(c3cccc(N=S(C)(C)=O)n3)[C@H]3CC(C)(C)OC[C@@]43C)ccc2C(C)(C)C1` (single isomer, unassigned) [Example 136], the IC50 lay in the range of 10 to 100 nM.

Compound `CC1(C)C[C@@H]2N(c3cccc(N=S(C)(C)=O)n3)c3nc(Nc4ccc([C@H]5CCNC5)cc4)ncc3[C@]2(C)CO1` (single isomer, unassigned) [Example 138] yielded an IC50 of 10 to 100 nM.

Compound `CN1CCC(c2ccc(Nc3ncc4c(n3)N(c3cccc(N=S(C)(C)=O)n3)[C@H]3CC(C)(C)OC[C@@]43C)cn2)CC1` (single isomer, unassigned) [Example 139] registered a half-maximal inhibitory concentration (IC50) of 100 to 1000 nM.

Compound `CN(C)C(=O)c1ccc(Nc2ncc3c(n2)N(c2cccc(N=S(C)(C)=O)n2)[C@H]2CC(C)(C)OC[C@@]32C)cc1` (single isomer, unassigned) [Example 142] had an IC50 of 10 to 100 nM.

For `Cc1cc(Nc2ncc3c(n2)N(c2cccc(N=S(C)(C)=O)n2)[C@H]2CC(C)(C)OC[C@@]32C)ccc1[C@@H]1CCNC1` (single isomer, unassigned) [Example 144], the half-maximal inhibitory concentration (IC50) was 100 to 1000 nM.

In turn, `Cc1cc(Nc2ncc3c(n2)N(c2cccc(N=S(C)(C)=O)n2)[C@H]2CC(C)(C)OC[C@@]32C)ccc1[C@@H]1CCN(C)C1` (single isomer, unassigned) [Example 146] yielded an IC50 of 10 to 100 nM.

For the compound `Cc1cc(Nc2ncc3c(n2)N(c2cccc(N=S(C)(C)=O)n2)[C@H]2CC(C)(C)OC[C@@]32C)ccc1[C@H]1CCN(C)C1` (single isomer, unassigned) [Example 148], the IC50 fell in the range of 10 to 100 nM.

`Cc1cc(Nc2ncc3c(n2)N(c2cccc(N=S(C)(C)=O)n2)[C@H]2CC(C)(C)OC[C@@]32C)ccc1[C@H]1CCNC1` (single isomer, unassigned) [Example 150] came in with an IC50 of 10 to 100 nM.

In the case of `CN1CCC(n2ccc(Nc3ncc4c(n3)N(c3cccc(N=S(C)(C)=O)n3)C3CC(C)(C)OCC43C)cc2=O)CC1` (single isomer, unassigned) [Example 151], the IC50 fell in the range of 100 to 1000 nM.

`CC1(C)C[C@@H]2N(c3cccc(N=S(C)(C)=O)n3)c3nc(Nc4ccc(O[C@H]5CCNC5)cc4)ncc3[C@]2(C)CO1` (single isomer, unassigned) [Example 154] yielded an IC50 of 100 to 1000 nM.

On to `CC1(C)C[C@@H]2N(c3cccc(N=S(C)(C)=O)n3)c3nc(Nc4ccc(O[C@@H]5CCNC5)cc4)ncc3[C@]2(C)CO1` (single isomer, unassigned) [Example 156], for which the IC50 is 10 to 100 nM.

`CN1CC[C@H](Oc2ccc(Nc3ncc4c(n3)N(c3cccc(N=S(C)(C)=O)n3)[C@H]3CC(C)(C)OC[C@@]43C)cc2)C1` (single isomer, unassigned) [Example 158] gave an IC50 of 100 to 1000 nM.

In turn, `CN1CC[C@@H](Oc2ccc(Nc3ncc4c(n3)N(c3cccc(N=S(C)(C)=O)n3)[C@H]3CC(C)(C)OC[C@@]43C)cc2)C1` (single isomer, unassigned) [Example 160] showed an IC50 of 100 to 1000 nM.

In the case of `[2H]C([2H])([2H])N1CCC(c2ccc(Nc3ncc4c(n3)N(c3cccc(N=S(C)(C)=O)n3)[C@H]3CC(C)(C)OC[C@@]43C)cc2)CC1` (single isomer, unassigned) [Example 161], the half-maximal inhibitory concentration (IC50) is 100 to 1000 nM.

The compound `CC1(C)C[C@@H]2N(c3cccc(N=S(C)(C)=O)n3)c3nc(Nc4ccc(C5CNC5)cc4)ncc3[C@]2(C)CO1` (single isomer, unassigned) [Example 164] had an IC50 of 10 to 100 nM.

In turn, `CN1CC(c2ccc(Nc3ncc4c(n3)N(c3cccc(N=S(C)(C)=O)n3)[C@H]3CC(C)(C)OC[C@@]43C)cc2)C1` (single isomer, unassigned) [Example 166] came in with an IC50 of 10 to 100 nM.

In turn, `CN1CC[C@](C)(c2ccc(Nc3ncc4c(n3)N(c3cccc(N=S(C)(C)=O)n3)[C@H]3CC(C)(C)OC[C@@]43C)cc2)C1` (single isomer, unassigned) [Example 167] had an IC50 of 10 to 100 nM.

In turn, `CN1CC[C@@](C)(c2ccc(Nc3ncc4c(n3)N(c3cccc(N=S(C)(C)=O)n3)[C@H]3CC(C)(C)OC[C@@]43C)cc2)C1` (single isomer, unassigned) [Example 170] registered an IC50 of 10 to 100 nM.

As for `CC1(C)C[C@@H]2N(c3cccc(N=S(C)(C)=O)n3)c3nc(Nc4ccc([C@]5(C)CCNC5)cc4)ncc3[C@]2(C)CO1` (single isomer, unassigned) [Example 172], the IC50 lay in the range of 10 to 100 nM.

The compound `CC1(C)C[C@H]2N(c3cccc(N=S(C)(C)=O)n3)c3nc(Nc4ccc([C@@]5(C)CCNC5)cc4)ncc3[C@@]2(C)CO1` (single isomer, unassigned) [Example 174] showed an IC50 of 10 to 100 nM.

`CN1C[C@H]2C[C@@H]1CN2c1ccc(Nc2ncc3c(n2)N(c2cccc(N=S(C)(C)=O)n2)[C@H]2CC(C)(C)OC[C@@]32C)cc1F` (single isomer, unassigned) [Example 175] showed an IC50 of 100 to 1000 nM.

`CN1CCC(c2ccc(Nc3ncc4c(n3)N(c3cccc(N=S(C)(C)=O)n3)[C@H]3CC(C)(C)OC[C@@]43C)cc2F)CC1` (single isomer, unassigned) [Example 178] registered an IC50 of 100 to 1000 nM.

`CN1C[C@@H]2C[C@H]1CN2c1ccc(Nc2ncc3c(n2)N(c2cccc(N=S(C)(C)=O)n2)[C@H]2CC(C)(C)OC[C@@]32C)cc1F` (single isomer, unassigned) [Example 179]: the IC50 lay within 100 to 1000 nM.

`CN1CC(c2ccc(Nc3ncc4c(n3)N(c3cccc(N=S(C)(C)=O)n3)[C@H]3CC(C)(C)OC[C@@]43C)cc2Cl)C1` (single isomer, unassigned) [Example 182] had an IC50 of 100 to 1000 nM.

Regarding `CN1CC(c2ccc(Nc3ncc4c(n3)N(c3cccc(N=S(C)(C)=O)n3)[C@H]3CC(C)(C)OC[C@@]43C)cc2F)C1` (single isomer, unassigned) [Example 185], the IC50 was 100 to 1000 nM.

`CC1(C)C[C@@H]2N(c3cccc(N=S(C)(C)=O)n3)c3nc(Nc4cnn(C5CCOCC5)c4)ncc3[C@]2(C)CO1` (single isomer, unassigned) [Example 186] yielded an IC50 of 100 to 1000 nM.

The compound `CN1Cc2cc(Nc3ncc4c(n3)N(c3cccc(N=S(C)(C)=O)n3)[C@H]3CC(C)(C)OC[C@@]43C)cnc2C1` (single isomer, unassigned) [Example 187] came in with an IC50 not below 1000 nM.

`CC1(C)C[C@@H]2N(c3cccc(N=S(C)(C)=O)n3)c3nc(Nc4ccc(C5CNC5)c(F)c4)ncc3[C@]2(C)CO1` (single isomer, unassigned) [Example 189] showed an IC50 of 100 to 1000 nM.

`CC1(C)C[C@@H]2N(c3cccc(N=S(C)(C)=O)n3)c3nc(Nc4ccc(C5CNC5)nc4)ncc3[C@]2(C)CO1` (single isomer, unassigned) [Example 191] showed an IC50 of 100 to 1000 nM.

`CN1CC(c2ccc(Nc3ncc4c(n3)N(c3cccc(N=S(C)(C)=O)n3)[C@H]3CC(C)(C)OC[C@@]43C)cn2)C1` (single isomer, unassigned) [Example 193] gave an IC50 of 100 to 1000 nM.

As to `CN1CC[C@H](n2cc(Nc3ncc4c(n3)N(c3cccc(N=S(C)(C)=O)n3)[C@H]3CC(C)(C)OC[C@@]43C)cn2)C1` (single isomer, unassigned) [Example 197], the IC50 was in the range of 100 to 1000 nM.

As for `CN1CCC[C@H](n2cc(Nc3ncc4c(n3)N(c3cccc(N=S(C)(C)=O)n3)[C@H]3CC(C)(C)OC[C@@]43C)cn2)C1` (single isomer, unassigned) [Example 200], the IC50 was 10 to 100 nM.

For `CN1CCC(c2cc(Nc3ncc4c(n3)N(c3cccc(N=S(C)(C)=O)n3)[C@H]3CC(C)(C)OC[C@@]43C)on2)CC1` (single isomer, unassigned) [Example 203], the IC50 was 100 to 1000 nM.

Regarding `CN1CCC(n2cnc(Nc3ncc4c(n3)N(c3cccc(N=S(C)(C)=O)n3)[C@H]3CC(C)(C)OC[C@@]43C)c2)CC1` (single isomer, unassigned) [Example 206], the IC50 lay in the range of 100 to 1000 nM.

For `CN1CC(n2cc(Nc3ncc4c(n3)N(c3cccc(N=S(C)(C)=O)n3)[C@H]3CC(C)(C)OC[C@@]43C)cn2)C1` (single isomer, unassigned) [Example 208], the IC50 was in the range of 10 to 100 nM.

As to `CN1CCC[C@@H]1c1ccc(Nc2ncc3c(n2)N(c2cccc(N=S(C)(C)=O)n2)[C@H]2CC(C)(C)OC[C@@]32C)cn1` (single isomer, unassigned) [Example 209], the half-maximal inhibitory concentration (IC50) was in the range of 10 to 100 nM.

Turning to `CC1(C)C[C@@H]2N(c3cccc(N=S(C)(C)=O)n3)c3nc(Nc4ccc([C@H]5CCCN5)nc4)ncc3[C@]2(C)CO1` (single isomer, unassigned) [Example 211], the IC50 is 10 to 100 nM.

With `CC1(C)C[C@@H]2N(c3cccc(N=S(C)(C)=O)n3)c3nc(Nc4ccc([C@@H]5CCCN5)nc4)ncc3[C@]2(C)CO1` (single isomer, unassigned) [Example 213], the IC50 lay in the range of 10 to 100 nM.

As for `CN1CCC[C@H]1c1ccc(Nc2ncc3c(n2)N(c2cccc(N=S(C)(C)=O)n2)[C@H]2CC(C)(C)OC[C@@]32C)cn1` (single isomer, unassigned) [Example 215], the IC50 fell in the range of 100 to 1000 nM.

Turning to `CN1C[C@@H]2CN(c3ccc(Nc4ncc5c(n4)N(c4cccc(N=S(C)(C)=O)n4)[C@H]4CC(C)(C)OC[C@@]54C)cc3)C[C@@H]2C1` (single isomer, unassigned) [Example 218], the IC50 fell in the range of 10 to 100 nM.

`CN1CC2(C1)CN(c1ccc(Nc3ncc4c(n3)N(c3cccc(N=S(C)(C)=O)n3)[C@H]3CC(C)(C)OC[C@@]43C)cc1)C2` (single isomer, unassigned) [Example 220] yielded an IC50 of 100 to 1000 nM.

These data come from patent publication US20260166039A1 (SCHRÖDINGER, INC., priority 2022, published 2026).
